Laboratory results from US4224332A, “1-Aza-[2,2,2]-bicyclooctanes and anti-depressant and anti-parkinsonian compositions thereof” (Pharmindustrie, priority 1978, dated 1980).
“Also recorded” adds a separate entry of the source. Read-outs that look alike come from different tables or passages of the source.

How the values were obtained:
[1] = system: hypothermia caused by reserpine; experiment: action on hypothermia caused by reserpine in mice; type: in vivo; details: Mus musculus, po, read-out: ED50 p.o. (dose exerting an antihypothermic effect equal to 50% of that caused by 15 mg/kg per os of imipramine)
Description: The results are expressed by an ED50 or dose of product, in mg/kg, capable of exerting an antihypothermic effect equal to 50% of the antihypothermic effect caused by 15 mg/kg (per os) of imipramine.

[2] = system: uptake of the noradrenaline (NA); experiment: inhibition of the uptake of noradrenaline (NA) by synaptosomes of the rat's brain, hypothalamus; type: biochemical; details: in vitro; for IC50: rat brain synaptosomes, hypothalamus
Source text: (§1) The results are expressed by an inhibiting concentration IC50, which represents the dose of product in micromoles per liter reducing by 50% the uptake of the noradrenaline (NA), the dopamine (DA), the serotonine (5-HT), or the choline in the specific regions of the brain (hypothalamus,striatum, medulla+pons) where the corresponding neurons predominate.

[3] = system: uptake of the dopamine (DA); experiment: inhibition of the uptake of dopamine (DA) by synaptosomes of the rat's brain, striatum; type: biochemical; details: in vitro; for IC50: rat brain synaptosomes, striatum
Source text: as §1

[4] = system: uptake of the serotonine (5-HT); experiment: inhibition of the uptake of serotonine (5-HT) by synaptosomes of the rat's brain, medulla + pons; type: biochemical; details: in vitro; for IC50: rat brain synaptosomes, medulla + pons
Source text: as §1

[5] = system: uptake of the choline; experiment: inhibition of the uptake of choline by synaptosomes of the rat's brain, striatum; type: biochemical; details: in vitro; for IC50: rat brain synaptosomes, striatum
Source text: as §1

[6] = acute toxicity, oral, male mouse CD1; details: in vivo, 3 days observation
Source text: The acute toxicities of the compounds of formula (I) have been determined on the male mouse CD1 (Charles River), the products being administered orally. The LD50 have been calculated, after 3 days observation, by the cumulative method of J. J. REED and H. MUENCH. (Amer. J. Hyg. 27, 493, 1938), which is relied upon herein for this purpose and the disclosure incorporated by reference.

[7] = compared with imipramine and nomifensine

Row | SMILES | ED50 [1] [mg/kg] | inhibiting effect on NA uptake, in words ([2]; compared with imipramine) | IC50 [2] [µM] | inhibiting effect on uptake of the dopamine at the level of the striatum, in words [3, 7] | IC50 [3] [µM] | inhibiting effect on 5-HT uptake, in words ([4]; compared with imipramine) | IC50 [4] [µM] | inhibiting activity on the neuronal uptake of the choline, in words [5, 7] | IC50 [5] [µM] | LD50 at 72 h [6] [mg/kg] | ED50 ([1]; mice, p.o., reserpine hypothermia) [mg/kg]
1 | c1ccc(C2CN3CCC2(c2ccccc2)CC3)cc1 (stereo not drawn) [Example 4, 3,4-diphenyl-1-aza-[2,2,2]-bicyclooctane] | 2 | active on all the four mediators used; also recorded: near to that of the imipramine | 0.045 | active on all the four mediators used; also recorded: very superior to that of imipramine; also recorded: comes near to the nomifensine | 0.6 | active on all the four mediators used; also recorded: near to that of the imipramine | 0.3 | active on all the four mediators used; also recorded: near to that of the imipramine; also recorded: exerts on the neuronal uptake of the choline an inhibiting activity | 25 | 200 | 
2 | CN(C)CCCN1c2ccccc2CCc2ccccc21 [Imipramine, reference compound] |  |  | 0.13 |  | 55 |  | 0.08 |  | 30 |  | 3
